Experimental data published in patent US9757375B2, “Compounds that inhibit human DNA ligases and methods of treating cancer” (University of Maryland, Baltimore, priority 2007, dated 2017).
Read-outs that look alike come from different tables or passages of the source.

Assays:
[1] = biological target: T1, hLigI (Homo sapiens, UniProt P18858); assay: High-throughput fluorescence-based DNA joining (ligation) assay; type: biochemical
T1 construct: made in house
Procedure, shortened: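 Nicked DNA substrate (10 pmol) was incubated with 0.25 pmol hLigI, with or without 100 μmol/L test compound, in duplicate. Afterwards the DNA was denatured and renatured with a 20-fold excess of unmodified oligonucleotide. Ligation forms an AF488/BHQ1 hairpin, read as reduced fluorescence at 518 nm.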

[2] = biological target: T2, human DNA ligase III (Homo sapiens, UniProt P49916); assay: as above; type: biochemical
T2 sequence (P49916 1-862 isoform P49916-4): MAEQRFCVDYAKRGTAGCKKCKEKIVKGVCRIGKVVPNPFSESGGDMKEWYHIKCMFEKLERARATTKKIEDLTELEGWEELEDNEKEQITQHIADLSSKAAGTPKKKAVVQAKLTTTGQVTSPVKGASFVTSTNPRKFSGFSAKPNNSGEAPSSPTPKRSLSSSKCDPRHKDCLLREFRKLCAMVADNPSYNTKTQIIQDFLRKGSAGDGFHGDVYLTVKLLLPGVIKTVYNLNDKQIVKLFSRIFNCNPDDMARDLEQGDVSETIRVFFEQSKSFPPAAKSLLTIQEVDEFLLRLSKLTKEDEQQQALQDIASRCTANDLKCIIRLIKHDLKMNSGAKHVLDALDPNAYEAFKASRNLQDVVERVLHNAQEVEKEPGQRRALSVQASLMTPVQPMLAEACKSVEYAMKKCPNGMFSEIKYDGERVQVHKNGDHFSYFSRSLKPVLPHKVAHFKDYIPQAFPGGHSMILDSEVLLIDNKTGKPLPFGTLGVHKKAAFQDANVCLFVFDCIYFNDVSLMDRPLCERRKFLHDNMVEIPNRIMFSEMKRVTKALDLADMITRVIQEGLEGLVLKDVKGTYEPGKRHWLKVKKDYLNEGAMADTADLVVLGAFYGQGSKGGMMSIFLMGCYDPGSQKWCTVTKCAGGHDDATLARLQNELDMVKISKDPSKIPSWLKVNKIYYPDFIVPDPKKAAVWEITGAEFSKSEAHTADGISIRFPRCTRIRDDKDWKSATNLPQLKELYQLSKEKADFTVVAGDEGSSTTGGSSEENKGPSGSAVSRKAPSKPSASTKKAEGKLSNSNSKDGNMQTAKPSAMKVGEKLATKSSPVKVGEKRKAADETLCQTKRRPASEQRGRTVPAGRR
Procedure, shortened: (§1)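 Ligation joins an AF488-labelled and a BHQ1-labelled oligonucleotide. After denaturation and renaturation with a 20-fold excess of unlabelled competitor strand, the product forms a quenched hairpin, so joining is read as loss of 518 nm fluorescence. Ligase III used a nicked duplex; ligase IV used two duplexes with short complementary single-strand ends.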

[3] = biological target: human DNA ligase IV (Homo sapiens, UniProt P49917); assay: as above; type: biochemical
Procedure, shortened: as §1

[4] = system: HCT116 cells; assay: Screen for potentiation of DNA damaging agents (MMS, camptothecin, cis-platinum, 3 aminobenzamide, ionizing radiation); type: cell-based, human
Text: (§2) The 192 human DNA ligase inhibitors were screened in parallel for effects on proliferation and the ability to potentiate the effects of several DNA damaging agents using two cell human lines, a colon cancer line HCT116 and a normal breast epithelial cell line MCF10A using a Biomek FX Laboratory Automation Workstation as described (23). The DNA damaging agents used, methyl methanesulfonate (MMS), camptothecin, cis-platinum, 3 aminobenzamide and ionizing radiation, are representatives of classes of agents used to treat cancer. Briefly, HCT116 and MCF10A cells were plated in 96 well plates such that the cultures were about 80% confluent after 5 days incubation. Compounds were added to the cultures at either 15 μM or 50 μM 1 day after plating. After incubation for 3 days, cell lysed in a solution containing 1.2% Igepal CA-630 and SYBR green that stains DNA (1:1000, Molecular Probes, Eugene, Oreg.). Subsequently, fluorescence was measured per well. The studies with DNA damaging agents were performed as follows. […] For ionizing radiation, cells were pre-incubated with the compounds at 50 μM for 1 hour prior to exposure to 2 gray of ionizing radiation. Cultures were incubated for 3 days and then treated as above.

[5] = system: MCF10A cells; assay: as above; type: cell-based, human; conditions: for MMS: Ratios of IC50 MCF10A: compound alone vs combination with MMS (100 μM)
Text: The 192 human DNA ligase inhibitors were screened in parallel for effects on proliferation and the ability to potentiate the effects of several DNA damaging agents using two cell human lines, a colon cancer line HCT116 and a normal breast epithelial cell line MCF10A using a Biomek FX Laboratory Automation Workstation as described (23). The DNA damaging agents used, methyl methanesulfonate (MMS), camptothecin, cis-platinum, 3 aminobenzamide and ionizing radiation, are representatives of classes of agents used to treat cancer. Briefly, HCT116 and MCF10A cells were plated in 96 well plates such that the cultures were about 80% confluent after 5 days incubation. Compounds were added to the cultures at either 15 μM or 50 μM 1 day after plating. After incubation for 3 days, cell lysed in a solution containing 1.2% Igepal CA-630 and SYBR green that stains DNA (1:1000, Molecular Probes, Eugene, Oreg.). Subsequently, fluorescence was measured per well. The studies with DNA damaging agents were performed as follows. […] Cultures were incubated for 3 days and then treated as above.

[6] = system: HCT116 and MCF10A cells; assay: Screen for potentiation of DNA damaging agents, cell line not stated with the result; type: cell-based, human; conditions: 50 μM
Text: as §2

[7] = system: HCT116 cells; assay: MTT cell growth assay; type: cell-based, human
Method: (§3) The activity of hits from the initial screen was further validated using the MTT assay. Briefly, MCF10A and HCT116 cells were seeded in 96 well plates at 300 and 1200 cells per well, respectively, and allowed to adhere overnight. The following day, serial dilutions of compounds in media were added to the cells in a final volume 200 μl. After incubation for 5 days, MTT reagent (3-(4,5-dimthylthiazol-2-yl)-2,5-diphenyltatrazolium) was added and incubation was continued for 4 h. Formazan crystals generated by reduction of the MTT reagent in mitochondria were solubilized with isopropanol prior to the measurement of absorbance at 560 nm wavelength in a plate reader.
After incubation for 5 days, cell growth was measured by the MTT assay (16).

[8] = system: MCF10A cells; assay: MTT cell growth assay; type: cell-based, human; conditions: Homo sapiens, MCF-10A
Method: as §3
To extend the results of the […] cell culture screening assay, a subset of compounds were tested in larger cultures. Different concentrations of Compounds 67 and 151 were added to asynchronous subconfluent populations of HCT116 and MCF10A cells. Asynchronous subconfluent populations of HCT116 and MCF10A cells were pre-treated with different concentrations of compound 64 prior to the addition of 3 aminobenzamide (2 mM) MMS (100 μM) or cis-platinum (1 μM). After incubation for 5 days, cell growth was measured by the MTT assay (16).

[9] = system: HCT116 and MCF10A cells; assay: Cell proliferation screen, result stated for one or both cell lines; type: cell-based; conditions: Homo sapiens, read-out: IC50 of inhibition of proliferation
[10] = biological target: T3, T4 DNA ligase (Enterobacteria phage T4, UniProt P00970); assay: High-throughput fluorescence-based DNA joining assay, non-specific inhibitor control; type: biochemical, bacteriophage T4
T3 construct: purchased NEB
T3 sequence (P00970 1-487): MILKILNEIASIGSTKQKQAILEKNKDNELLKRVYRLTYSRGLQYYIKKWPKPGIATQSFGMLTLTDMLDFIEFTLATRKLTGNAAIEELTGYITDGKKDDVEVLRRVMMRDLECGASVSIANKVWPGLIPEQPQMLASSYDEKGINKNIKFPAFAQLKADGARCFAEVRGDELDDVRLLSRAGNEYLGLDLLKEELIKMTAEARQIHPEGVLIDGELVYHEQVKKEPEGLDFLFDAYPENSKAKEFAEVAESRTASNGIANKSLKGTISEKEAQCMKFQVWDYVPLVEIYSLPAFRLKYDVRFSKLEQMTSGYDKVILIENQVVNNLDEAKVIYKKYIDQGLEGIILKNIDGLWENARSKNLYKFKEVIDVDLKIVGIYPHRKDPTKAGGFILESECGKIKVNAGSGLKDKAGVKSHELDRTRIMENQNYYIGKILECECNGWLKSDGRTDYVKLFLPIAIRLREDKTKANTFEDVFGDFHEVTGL
Method: Candidate ligase inhibitors identified by CADD were assayed for their ability to inhibit hLigI and T4 DNA ligase using a high-throughput, fluorescence energy transfer-based DNA joining assay (22). Duplicate reactions (30 μL) containing 10 pmol of nicked DNA substrate and either 0.25 pmol of hLigI or 10 units of T4 DNA ligase were incubated in the presence or absence of 100 μmol/L of the putative inhibitor. DNA binding by the candidate DNA ligase inhibitors was measured by displacement of ethidium bromide from DNA as previously described (30).
In addition, to identify compounds that may be non-specific inhibitors of DNA joining, the 192 compounds were also assayed for their ability to inhibit bacteriophage T4 DNA ligase, an enzyme that utilizes the same reaction mechanism as hLigI, has similar adenylation and OB-fold domains but lacks a DBD domain. (6) Although this is also an ATP-dependent DNA ligase, it lacks the domain containing the binding pocket targeted by the in silico screen. Compounds that inhibited T4 DNA ligase were eliminated as non-specific inhibitors that most likely bind to the DNA.

[11] = biological target: hLigIV/XRCC4 (Homo sapiens, UniProt P49917); assay: Radioactive gel-based DNA ligation assay; type: biochemical; set-up: concentration or dose not given beside the values
[12] = 100 μM, read-out: % of inhibition @ 100 μM (Helen's data) hLigI
[13] = read-out: % of inhibition @ 100 μM (Helen's data) hLigIII
[14] = 100 μM, read-out: % of inhibition @ 100 μM (Helen's data) hLigIV
[15] = cell growth, compound alone, read-out: IC50 (μM) MCF10A
[16] = sections 'high concentrations (~50 μM)' and 'active in vitro that decreased cell growth', same figures given in μM elsewhere in Table 6, read-out: IC50 MCF10A (head without unit)

Sequence of human DNA ligase IV (P49917 whole entry): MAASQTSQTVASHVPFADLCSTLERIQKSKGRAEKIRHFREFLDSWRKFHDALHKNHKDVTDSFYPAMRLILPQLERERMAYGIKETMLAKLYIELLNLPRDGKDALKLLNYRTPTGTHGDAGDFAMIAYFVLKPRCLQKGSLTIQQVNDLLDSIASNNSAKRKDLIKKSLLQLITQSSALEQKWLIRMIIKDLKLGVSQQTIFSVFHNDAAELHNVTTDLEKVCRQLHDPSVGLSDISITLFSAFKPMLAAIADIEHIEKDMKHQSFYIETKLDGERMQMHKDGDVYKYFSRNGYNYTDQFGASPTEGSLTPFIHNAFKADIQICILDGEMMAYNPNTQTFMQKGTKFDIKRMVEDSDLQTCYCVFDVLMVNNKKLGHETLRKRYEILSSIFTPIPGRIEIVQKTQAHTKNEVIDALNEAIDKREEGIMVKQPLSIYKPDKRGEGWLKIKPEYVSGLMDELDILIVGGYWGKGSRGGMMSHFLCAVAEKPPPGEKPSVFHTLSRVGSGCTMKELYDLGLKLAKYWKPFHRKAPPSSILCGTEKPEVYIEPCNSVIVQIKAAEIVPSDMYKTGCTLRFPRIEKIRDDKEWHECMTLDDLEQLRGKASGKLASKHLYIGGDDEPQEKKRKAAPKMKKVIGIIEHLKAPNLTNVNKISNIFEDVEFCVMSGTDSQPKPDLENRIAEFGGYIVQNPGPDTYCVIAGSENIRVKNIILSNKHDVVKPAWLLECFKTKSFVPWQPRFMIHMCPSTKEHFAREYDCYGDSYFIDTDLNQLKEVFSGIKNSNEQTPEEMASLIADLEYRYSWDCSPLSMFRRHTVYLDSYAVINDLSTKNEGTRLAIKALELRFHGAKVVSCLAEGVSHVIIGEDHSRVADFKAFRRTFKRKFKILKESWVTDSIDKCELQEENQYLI
Sequence of human DNA ligase IV (Q13426 whole entry partner): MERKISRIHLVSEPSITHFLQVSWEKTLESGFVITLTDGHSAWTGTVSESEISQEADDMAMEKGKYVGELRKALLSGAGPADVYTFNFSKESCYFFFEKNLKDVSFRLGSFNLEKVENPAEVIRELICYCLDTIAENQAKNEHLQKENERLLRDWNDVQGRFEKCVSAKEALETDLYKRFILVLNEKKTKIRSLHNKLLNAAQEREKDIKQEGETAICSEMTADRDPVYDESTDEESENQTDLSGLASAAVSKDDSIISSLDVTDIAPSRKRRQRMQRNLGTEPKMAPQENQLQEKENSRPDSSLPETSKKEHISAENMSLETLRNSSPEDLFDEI
T1 sequence (P18858 whole entry): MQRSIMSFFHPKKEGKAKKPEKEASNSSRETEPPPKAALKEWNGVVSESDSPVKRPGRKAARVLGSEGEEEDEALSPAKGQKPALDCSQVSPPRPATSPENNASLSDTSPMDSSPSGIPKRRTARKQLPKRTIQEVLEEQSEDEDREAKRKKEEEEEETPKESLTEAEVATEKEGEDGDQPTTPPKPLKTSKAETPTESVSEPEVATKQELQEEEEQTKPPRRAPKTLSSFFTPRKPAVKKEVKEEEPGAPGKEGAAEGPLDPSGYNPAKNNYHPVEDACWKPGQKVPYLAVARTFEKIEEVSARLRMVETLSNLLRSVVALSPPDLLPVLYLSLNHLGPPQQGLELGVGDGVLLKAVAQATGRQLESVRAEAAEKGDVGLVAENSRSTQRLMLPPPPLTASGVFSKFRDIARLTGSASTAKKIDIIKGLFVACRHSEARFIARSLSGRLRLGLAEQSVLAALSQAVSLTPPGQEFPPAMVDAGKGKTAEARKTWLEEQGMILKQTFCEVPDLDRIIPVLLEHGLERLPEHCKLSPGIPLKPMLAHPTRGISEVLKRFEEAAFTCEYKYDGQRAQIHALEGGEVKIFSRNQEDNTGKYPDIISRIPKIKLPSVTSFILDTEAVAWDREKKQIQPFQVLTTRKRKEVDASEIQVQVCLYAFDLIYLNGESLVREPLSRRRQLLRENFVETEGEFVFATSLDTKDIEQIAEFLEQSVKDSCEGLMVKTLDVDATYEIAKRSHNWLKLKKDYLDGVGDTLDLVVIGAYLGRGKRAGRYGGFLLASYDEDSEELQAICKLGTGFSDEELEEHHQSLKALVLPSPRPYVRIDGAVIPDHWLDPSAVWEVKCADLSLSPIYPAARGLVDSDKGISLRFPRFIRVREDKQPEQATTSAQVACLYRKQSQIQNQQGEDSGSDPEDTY
Sequence of hLigIV/XRCC4 (P49917 whole entry): as the sequence (P49917 whole entry) above
Sequence of hLigIV/XRCC4 (Q13426 whole entry partner): as the sequence (Q13426 whole entry partner) above

SMILES | % of inhibition @ 100 μM (Helen's data) hLigIV ([3]; 100 μM) | inhibition at 100 µM [1, 12] [%] | inhibition at 100 µM [2, 13] [%] | inhibition at 100 µM [3, 14] [%] | MMS: Ratios of IC50 MCF10A ([5]; 1 = no sensitization) | IC50 [8, 15] [µM] | IC50 [9] [µM] | IC50 [8, 16] [µM] | also measured
CCc1ccc(NS(=O)(=O)c2ccc(Cl)s2)cc1 [Compound 105] | NI (NI- no inhibition) |  |  |  |  |  |  |  | % of inhibition @ 100 μM (Helen's data) hLigI ([1]; 100 μM): NI (NI- no inhibition); % of inhibition @ 100 μM (Helen's data) hLigIII ([2]; 100 μM): NI (NI- no inhibition); Radiosensitizers: IC50 ratios HCT116 ([4]; ionizing radiation): 1.3; Radiosensitizers: IC50 ratios MCF10A ([5]; ionizing radiation): 1; radiosensitizer activity ([6]; 2 gray of ionizing radiation): act as radiosensitizers; IC50 ([7]; cell growth, compound alone, read-out: IC50 (μM) HCT116): ~50 µM
O=C(O)c1ccccc1Nc1ccc([N+](=O)[O-])c2nonc12 [Compound 16] |  | < 20 | < 20 | < 20 | 1 | 6 | < 20 |  | 
C=CCN1C(=O)/C(=N\NC(=O)c2ccccc2O)c2ccccc21 [Compound 78] |  |  | > 20 |  | 1.5 | 7.5 | < 20 | 7.5 | inhibition at 100 µM ([3]; read-out: % of inhibition @ 100 μM (Helen's data) hLigIV): < 20%; MMS: Ratios of IC50 HCT116 ([4]; compound alone vs combination with MMS (100 μM), 1 = no sensitization): 1; IC50 ratios of non- and 3-AB treated cells MCF10A ([5]; compound alone vs combination with 3-AB (2 mM), 1 = no sensitization): 1; enhancement of the cytostatic effect of MMS ([6]; MMS 100 μM): enhance the cytostatic effect of MMS; IC50 ([7]; Homo sapiens, HCT-116, cell growth, compound alone, read-out: IC50 (μM) HCT116): 10 µM; IC50 ([7]; Homo sapiens, HCT-116, sections 'high concentrations (~50 μM)' and 'active in vitro that decreased cell growth', same figures given in μM elsewhere in Table 6, read-out: IC50 HCT116 (head without unit)): 10 µM
Nn1cnnc1N/N=C/c1cc([N+](=O)[O-])c(Cl)cc1Cl [Compound 195] |  | 26 | 24 | < 20 | 1.2 | 3 | < 20 | 3 | 
O=C(Nc1nc2ccccc2s1)c1ccc(Cl)c([N+](=O)[O-])c1 [Compound 165] | 37% | < 20 | < 20 | 37.2 | 1 | 3 | < 20 | 3 | 
CCn1nc(N)c2c(O)nc(O)cc21 [Compound 93] |  |  |  |  |  |  |  |  | % activity Inhibition hLigI 100 uM ([1]; 100 uM): Ø; inhibition at 100 µM ([1]; 100 μM, read-out: In vitro % inhib hLigI 100): 0%; inhibition at 100 µM ([2]; 100 μM, read-out: In vitro % inhib hLigIII 100): 0%; % activity Inhibition hLigIII 100 uM ([2]; 100 uM, Ø not defined (0 in Table 5A)): Ø; inhibition at 100 µM ([3]; 100 μM, read-out: In vitro % inhib hLigIV 100): 37 ± 6%; inhibition at 100 µM ([3]; 100 uM, Ø not defined (0 in Table 5A), read-out: % activity Inhibition hLigIV 100 uM): 37.6 ± 6.1%; inhibition of human DNA ligase IV, in words ([3]; in vitro screen): specific for DNA ligase IV; % activity Inhibition LigT4 100 uM ([10]; 100 uM): Ø; inhibition at 100 µM ([10]; 100 μM, read-out: In vitro % inhib T4 100): 0%; % activity Inhibition hLigIV gel [11]: Ø
